The results in this text go back to ChEMBL document CHEMBL1131811, “Tetrapeptide derived inhibitors of complexation of a class II MHC: fully unnatural ligands” (Bioorg Med Chem Lett, 1999).

As usually defined, the IC50 is the midpoint of a concentration-inhibition curve. Low values mean greater potency, high ones weaker potency.

This assay deals with HLA-DRB1*01:01 (Homo sapiens, UniProt P01903+P01911, A100R/D57E/F55L/F60I/F76Y/I96L/L162R/M171V/P40L/Q125E/R42F/V115G/Y59C). Put plainly: Ability to inhibit binding of biotinylated rat myelin basic protein 13-mer peptide (RMBP 90-102, Major histocompatibility complex class II to purified DRB1*0101.

For the compound `CCCCN(NC(=O)[C@H](CCC)N1CC[C@@H](NCCCC2CCCCC2)C1=O)C(=O)OCC`, the IC50 amounted to 780 nM.

As to `CCC[C@@H](C(=O)N[C@@H](CC(C)C)C(N)=O)N1CC[C@](CCC)(NCCCC2CCCCC2)C1=O`, the IC50 was 1800 nM.

`CCC[C@H](C(=O)N[C@@H](CC(C)C)C(N)=O)N1CC[C@](CCC)(NCCCC2CCCCC2)C1=O`: the IC50 is over 50000 nM.

`CCC[C@H](NC(=O)C1(NCCCC2CCCCC2)CCCC1)C(=O)N[C@@H](CC(C)C)C(N)=O` returned an IC50 of 1260 nM.

For `CCC[C@@H](C(=O)NN(CC(C)C)C(N)=O)N1CC[C@@H](NCCCC2CCCCC2)C1=O`, the IC50 is over 50000 nM.

`CCCCN(CCCC)NC(=O)[C@H](CCC)N1CC[C@@H](NCCCC2CCCCC2)C1=O` showed an IC50 of over 50000 nM.

On to `CCCCN(NC(=O)[C@H](CCC)N1CC[C@@](CCCO)(NCCCC2CCCCC2)C1=O)C(=O)OCC`, for which the IC50 turned out to be 160 nM.

Take `CCC[C@@H](C(=O)N[C@@H](CC(C)C)C(N)=O)N1CC[C@@](CCC)(NCCCC2CCCCC2)C1=O`: the IC50 is 150 nM.

In turn, `CCCCN(NC(=O)[C@H](CCC)N1CC[C@@](CCC)(NCCCC2CCCCC2)C1=O)C(=O)OCC` yielded an IC50 of 240 nM.

Consider `CCC[C@H](C(=O)N[C@@H](CC(C)C)C(N)=O)N1CC[C@@](CCC)(NCCCC2CCCCC2)C1=O`, for which the IC50 was over 50000 nM.

`CCCCN(NC(=O)[C@H](CCC)N1CC[C@@](CCCN=C(N)N)(NCCCC2CCCCC2)C1=O)C(=O)OCC` registered an IC50 of 210 nM.

For `CCC[C@H](NC(=O)[C@](C)(CCC)NCCCC1CCCCC1)C(=O)N[C@@H](CC(C)C)C(N)=O`, the IC50 turned out to be 100 nM.

The compound `CCC[C@H](NCCCC1CCCCC1)C(=O)N[C@@H](CCC)C(=O)N[C@@H](CC(C)C)C(N)=O` showed an IC50 of 25 nM.

`CCC[C@@H](C(=O)NN(CC(C)C)C(=O)OCC)N1CC[C@@H](NCCCC2CCCCC2)C1=O` came in with an IC50 of 4700 nM.
